Results from patent US20240174696A1, “2,8-DIAZASPIRO[4.5]DECANE COMPOUNDS” (Genentech, Inc., priority 2021, published 2024).

Legend:
[1] = target: Human LATS2 catalytic domain (Homo sapiens (Human), UniProt Q9NRM7); assay: LATS2 High ATP HTRF Assay; type: biochemical; settings: no asterisk: LATS2 High ATP HTRF Assay, 5000 μM ATP, 0.05 nM LATS2
Method in brief: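 LATS2 catalytic domain (G553-V1088) co-purified with Mob1b, 0.05 nM, pre-incubated 10 min with compound, then 5000 μM ATP and 0.5 μM STK S1 peptide in HEPES pH7.2 for 2 h at room temperature. HTRF 665/620 nm read; IC50 by four-parameter fit, Ki via Cheng-Prusoff with ATP Km 105 μM.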

[2] = tested on: TAZ nuclear translocation in SW1990 cells; assay: TAZ Nuclear Translocation Assay; type: cell-based; settings: Homo sapiens, 4 hours
Procedure: The SW1990 cells (ATCC, CRL2172) were seeded at 5000 cells/well by adding 30 μL/well of cells in RPMI1640, 10% FBS, 2 mM glutamine culture media to a 384-well plate (Greiner 781091). The cells were incubated overnight at 37° C. Next day, test compounds were directly added to the cells using the Echo Liquid Handler (Labcyte), incubate at 37° C. for 4 hours. The cells were fixed with 4% paraformaldehyde and incubate for 20 minutes at room temperature. After washing three times with 100 μL PBS, 0.5% Triton X-100 was added to permeabilize the cells, incubate at room temperature for 5 minutes, following by washing the cells three times with PBS. 3% BSA was added to the cells, incubate for one hour at room temperature, following by washing three times with PBS. 50 μL of 1:750 diluted rabbit Anti-TAZ (Cell signaling D316D) in 3% BSA was added to the cells, incubate at 4° C. overnight. Next day, after washing the cells three times with PBS, 50 μL of 1:1250 diluted donkey anti-Rabbit, Alexa Fluor 488 (Invitrogen A21206) and 1:6250 diluted Hoechst 33342 (Molecular Probes H-21492) in 3% BSA was added to the cells, incubate at room temperature for one hour. The cells were washed three times with PBS, then image with the CellInsight CX7 High-Content Imager. The ratio of nuclear mean fluorescence intensity and cytoplasmic ring region mean fluorescence intensity was calculated. The % inhibition was normalized using DMSO as 0% inhibition and an inhibitor control as 100% inhibition. The EC50 values were calculated by fitting the % inhibition with a nonlinear four-parameter logistical equation.

Chain of Human LATS2 catalytic domain (Q9NRM7 553-1088): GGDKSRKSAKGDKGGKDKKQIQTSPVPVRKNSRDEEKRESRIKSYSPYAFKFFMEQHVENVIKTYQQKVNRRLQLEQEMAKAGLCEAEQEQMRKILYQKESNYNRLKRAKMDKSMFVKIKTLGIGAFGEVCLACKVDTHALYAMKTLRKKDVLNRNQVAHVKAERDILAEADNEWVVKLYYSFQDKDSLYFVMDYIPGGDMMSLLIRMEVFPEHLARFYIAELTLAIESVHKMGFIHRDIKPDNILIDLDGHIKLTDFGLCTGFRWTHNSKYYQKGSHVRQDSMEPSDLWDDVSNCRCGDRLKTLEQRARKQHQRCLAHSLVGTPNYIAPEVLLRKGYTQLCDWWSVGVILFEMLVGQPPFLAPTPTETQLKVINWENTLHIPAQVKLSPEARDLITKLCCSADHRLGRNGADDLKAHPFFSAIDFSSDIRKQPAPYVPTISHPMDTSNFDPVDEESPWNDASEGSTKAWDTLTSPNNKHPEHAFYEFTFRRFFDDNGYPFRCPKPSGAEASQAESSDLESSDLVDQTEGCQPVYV
Chain of Human LATS2 catalytic domain (Q7L9L4 whole entry partner, the tested form may be a part): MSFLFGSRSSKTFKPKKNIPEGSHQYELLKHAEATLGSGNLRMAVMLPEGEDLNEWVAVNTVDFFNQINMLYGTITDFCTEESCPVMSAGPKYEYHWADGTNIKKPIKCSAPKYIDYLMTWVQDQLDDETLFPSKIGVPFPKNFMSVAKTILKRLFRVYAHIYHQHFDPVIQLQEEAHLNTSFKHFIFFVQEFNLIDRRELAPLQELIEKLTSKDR

| Ki [1] | EC50 [2] | Compound |
| --- | --- | --- |
| 1.4 nM | > 10000 nM | Cc1n[nH]c(C)c1-c1nc(N2CCC3(CCNC3)CC2)c2ccncc2n1 [Compound 241, 2-(3,5-Dimethyl-1H-pyrazol-4-yl)-4-(2,8-diazaspiro[4.5]decan-8-yl)pyrido[3,4-d]pyrimidine] |
| 0.76 nM | 2800 nM | COCc1nccc2c(N3CCC4(CCNC4)CC3)nc(-c3ccncc3)nc12 [Compound 242, 8-(methoxymethyl)-2-(pyridin-4-yl)-4-(2,8-diazaspiro[4.5]decan-8-yl)pyrido[3,4-d]pyrimidine] |
| 1.9 nM | 3900 nM | COCc1cncc2nc(-c3ccncc3)nc(N3CCC4(CCNC4)CC3)c12 [Compound 243, 5-(Methoxymethyl)-2-(pyridin-4-yl)-4-(2,8-diazaspiro[4.5]decan-8-yl)pyrido[3,4-d]pyrimidine] |
| 3.5 nM | 3100 nM | FC(F)(F)c1cncc2nc(-c3ccncc3)nc(N3CCC4(CCNC4)CC3)c12 [Compound 246, 2-(pyridin-4-yl)-4-(2,8-diazaspiro[4.5]decan-8-yl)-5-(trifluoromethyl)pyrido[3,4-d]pyrimidine] |
| 0.02 nM | 110 nM | CC(C)Oc1cncc2nc(-c3ccncc3)nc(N3CCC4(CCNC4)CC3)c12 [Compound 248, 5-isopropoxy-2-(pyridin-4-yl)-4-(2,8-diazaspiro[4.5]decan-8-yl)pyrido[3,4-d]pyrimidine] |
| 0.27 nM | > 10000 nM | Oc1cncc2nc(-c3ccncc3)nc(N3CCC4(CCNC4)CC3)c12 [Compound 249, 2-(Pyridin-4-yl)-4-(2,8-diazaspiro[4.5]decan-8-yl)pyrido[3,4-d]pyrimidin-5-ol] |
| 3.5 nM | > 10000 nM | [O-][n+]1ccc(-c2nc(N3CCC4(CCNC4)CC3)c3ccncc3n2)cc1 [Compound 251, 4-(4-(2,8-diazaspiro[4.5]decan-8-yl)pyrido[3,4-d]pyrimidin-2-yl)pyridine 1-oxide] |
| 0.018 nM | 100 nM | C=CCOc1cncc2nc(-c3ccncc3)nc(N3CCC4(CCNC4)CC3)c12 [Compound 254, 5-(allyloxy)-2-(pyridin-4-yl)-4-(2,8-diazaspiro[4.5]decan-8-yl)pyrido[3,4-d]pyrimidine] |
| 8 nM | > 10000 nM | COc1[nH]ncc1-c1nc(N2CCC3(CCNC3)CC2)c2ccncc2n1 [Compound 257, 2-(5-methoxy-1H-pyrazol-4-yl)-4-(2,8-diazaspiro[4.5]decan-8-yl)pyrido[3,4-d]pyrimidine] |
| 1.8 nM | 1900 nM | CN(C)c1cncc2nc(-c3ccncc3)nc(N3CCC4(CCNC4)CC3)c12 [Compound 258, N,N-Dimethyl-2-(pyridin-4-yl)-4-(2,8-diazaspiro[4.5]decan-8-yl)pyrido[3,4-d]pyrimidin-5-amine] |
| 0.1 nM | 580 nM | C#CCN1CCC2(CCN(c3nc(-c4ccncc4)nc4cnccc34)CC2)C1 [Compound 261, 4-(2-(prop-2-yn-1-yl)-2,8-diazaspiro[4.5]decan-8-yl)-2-(pyridin-4-yl)pyrido[3,4-d]pyrimidine] |
| 0.028 nM | 360 nM | FCOc1cncc2nc(-c3ccncc3)nc(N3CCC4(CCNC4)CC3)c12 [Compound 267, 5-(fluoromethoxy)-2-(pyridin-4-yl)-4-(2,8-diazaspiro[4.5]decan-8-yl)pyrido[3,4-d]pyrimidine] |

The next lines start with the compound.

| Compound | Ki [1] | EC50 [2] |
| --- | --- | --- |
| CC(C)(O)C#Cc1nccc2c(N3CCC4(CCNC4)CC3)nc(-c3ccncc3)nc12 [Compound 245, 2-methyl-4-(2-(pyridin-4-yl)-4-(2,8-diazaspiro[4.5]decan-8-yl)pyrido[3,4-d]pyrimidin-8-yl)but-3-yn-2-ol] | 0.039 nM | 4800 nM |
| CN1CCC2(CCN(c3nc(-c4ccncc4)nc4c(C#CC(C)(C)O)nccc34)CC2)C1 [Compound 247, 2-methyl-4-(4-(2-methyl-2,8-diazaspiro[4.5]decan-8-yl)-2-(pyridin-4-yl)pyrido[3,4-d]pyrimidin-8-yl)but-3-yn-2-ol] | 0.039 nM | 310 nM |
| COc1cncc2nc(-c3ccncc3)nc(N3CCC4(CCN(CC(C)(C)O)C4)CC3)c12 [Compound 250, 1-(8-(5-methoxy-2-(pyridin-4-yl)pyrido[3,4-d]pyrimidin-4-yl)-2,8-diazaspiro[4.5]decan-2-yl)-2-methylpropan-2-ol] | 0.033 nM | 100 nM |
| COc1cncc2nc(-c3ccncc3)nc(N3CCC4(CCN(CC5(O)CCC5)C4)CC3)c12 [Compound 253, 1-((8-(5-methoxy-2-(pyridin-4-yl)pyrido[3,4-d]pyrimidin-4-yl)-2,8-diazaspiro[4.5]decan-2-yl)methyl)cyclobutan-1-ol] | 0.28 nM | 120 nM |
| COc1cncc2nc(-c3ccncc3)nc(N3CCC4(CCN(CC5COC5)C4)CC3)c12 [Compound 255, 5-Methoxy-4-(2-(oxetan-3-ylmethyl)-2,8-diazaspiro[4.5]decan-8-yl)-2-(pyridin-4-yl)pyrido[3,4-d]pyrimidine] | 0.034 nM | 140 nM |
| C#CCCN1CCC2(CCN(c3nc(-c4ccncc4)nc4cnccc34)CC2)C1 [Compound 256, 4-(2-(but-3-yn-1-yl)-2,8-diazaspiro[4.5]decan-8-yl)-2-(pyridin-4-yl)pyrido[3,4-d]pyrimidine] | 0.19 nM | 470 nM |
| CN1CCC2(CCN(c3nc(-c4ccncc4)nc4cncc(O)c34)CC2)C1 [Compound 259, 4-(2-methyl-2,8-diazaspiro[4.5]decan-8-yl)-2-(pyridin-4-yl)pyrido[3,4-d]pyrimidin-5-ol] | 1.6 nM | > 10000 nM |
| c1cc(-c2nc(N3CCC4(CCNC4)CC3)c3c(OC4COC4)cncc3n2)ccn1 [Compound 260, 5-(Oxetan-3-yloxy)-2-(pyridin-4-yl)-4-(2,8-diazaspiro[4.5]decan-8-yl)pyrido[3,4-d]pyrimidine] | 0.055 nM | 4000 nM |
| Cc1[nH]ncc1-c1nc(N2CCC3(CCN(C)C3)CC2)c2ccnc(Cl)c2n1 [Compound 262, 8-chloro-2-(5-methyl-1H-pyrazol-4-yl)-4-(2-methyl-2,8-diazaspiro[4.5]decan-8-yl)pyrido[3,4-d]pyrimidine] | 0.028 nM | 250 nM |
| COCCOc1cncc2nc(-c3ccncc3)nc(N3CCC4(CCNC4)CC3)c12 [Compound 263, 5-(2-methoxyethoxy)-2-(pyridin-4-yl)-4-(2,8-diazaspiro[4.5]decan-8-yl)pyrido[3,4-d]pyrimidine] | 0.11 nM | 1200 nM |
| COc1cncc2nc(-c3c[nH]nc3C)nc(N3CCC4(CCN(C)C4)CC3)c12 [Compound 264, 5-methoxy-2-(3-methyl-1H-pyrazol-4-yl)-4-(2-methyl-2,8-diazaspiro[4.5]decan-8-yl)pyrido[3,4-d]pyrimidine] | 0.026 nM | 170 nM |
| COc1cncc2nc(-c3c[nH]nc3C)nc(N3CCC4(CCN(CC(C)(C)O)C4)CC3)c12 [Compound 265, 1-(8-(5-methoxy-2-(3-methyl-1H-pyrazol-4-yl)pyrido[3,4-d]pyrimidin-4-yl)-2,8-diazaspiro[4.5]decan-2-yl)-2-methylpropan-2-ol] | 0.047 nM | 240 nM |
| CN1CCC2(CCN(c3nc(-c4ccncc4)nc4c(Cl)nccc34)CC2)C1 [Compound 266, 8-chloro-4-(2-methyl-2,8-diazaspiro[4.5]decan-8-yl)-2-(pyridin-4-yl)pyrido[3,4-d]pyrimidine] | 0.37 nM | 1100 nM |
